Experimental data as given in patent US9695155B2, “Herbicidal substituted pyrimidinyloxy benzene compounds” (E. I. DU PONT DE NEMOURS AND COMPANY, priority 2013, dated 2017).

Legend:
[1] = system: giant foxtail; experiment: Test A postemergence; type: in vivo, Setaria faberii; details: 0 to 100 scale where 0 is no effect and 100 is complete control; for Foxtail, Giant plant response rating: 125 g ai/ha; for Plant response rating, Foxtail, Giant: 500 g ai/ha
Procedure, shortened: (§1)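 Compounds in non-phytotoxic solvent with surfactant applied as soil spray preemergence, or postemergence to plants 2-10 cm at one- to two-leaf stage, in loam/sand. After approximately 10 days in greenhouse, injury rated visually versus untreated controls, 0 (no effect) to 100 (complete control).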

[2] = system: corn; experiment: Test A preemergence; type: in vivo, Zea mays; details: 0 to 100 scale where 0 is no effect and 100 is complete control; for Plant response rating, Corn: 125 g ai/ha; for Corn plant response rating: 500 g ai/ha
Procedure, shortened: as §1

[3] = system: Heteranthera limosa; experiment: Test B flooded paddy test; type: in vivo; details: Flood, 250 g ai/ha; 0 to 100 scale where 0 is no effect and 100 is complete control
Procedure, shortened: (§2)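 2-leaf stage plants; pots flooded to 3 cm, compound added to paddy water, depth maintained. Greenhouse 13–15 d. Visual rating vs untreated controls, 0 (no effect) to 100 (complete control); dash = no result.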

[4] = system: sedge, umbrella; experiment: Test B flooded paddy test; type: in vivo, Cyperus difformis; details: Flood, 250 g ai/ha; 0 to 100 scale where 0 is no effect and 100 is complete control
Procedure, shortened: as §2

[5] = system: large (Lg) crabgrass; experiment: Test A postemergence; type: in vivo, Digitaria sanguinalis; details: 0 to 100 scale where 0 is no effect and 100 is complete control; for Crabgrass, Large plant response rating: 125 g ai/ha; for Plant response rating, Crabgrass, Large: 500 g ai/ha
Procedure, shortened: as §1

[6] = system: rice; experiment: Test B flooded paddy test; type: in vivo, Oryza sativa; details: Flood, 250 g ai/ha; 0 to 100 scale where 0 is no effect and 100 is complete control
Procedure, shortened: as §2

[7] = system: velvetleaf; experiment: Test A postemergence; type: in vivo, Abutilon theophrasti; details: 0 to 100 scale where 0 is no effect and 100 is complete control; for Velvetleaf plant response rating: 125 g ai/ha; for Plant response rating, Velvetleaf: 500 g ai/ha
Procedure, shortened: as §1

[8] = system: corn; experiment: Test A postemergence; type: in vivo, Zea mays; details: 0 to 100 scale where 0 is no effect and 100 is complete control; for Corn plant response rating: 125 g ai/ha; for Plant response rating, Corn: 500 g ai/ha
Procedure, shortened: as §1

[9] = system: morningglory; experiment: Test A postemergence; type: in vivo, Ipomoea spp.; details: 0 to 100 scale where 0 is no effect and 100 is complete control; for Morningglory plant response rating: 125 g ai/ha; for Plant response rating, Morningglory: 500 g ai/ha
Procedure, shortened: as §1

[10] = system: large (Lg) crabgrass; experiment: Test A preemergence; type: in vivo, Digitaria sanguinalis; details: 0 to 100 scale where 0 is no effect and 100 is complete control; for Plant response rating, Crabgrass, Large: 125 g ai/ha; for Crabgrass, Large plant response rating: 500 g ai/ha
Procedure, shortened: as §1

[11] = system: wheat; experiment: Test A preemergence; type: in vivo, Triticum aestivum; details: for Wheat plant response rating (0 to 100 scale): 125 g ai/ha; for Wheat plant response rating: 500 g ai/ha, 0 to 100 scale where 0 is no effect and 100 is complete control
Procedure, shortened: as §1

[12] = system: pigweed; experiment: Test A postemergence; type: in vivo, Amaranthus retroflexus; details: 0 to 100 scale where 0 is no effect and 100 is complete control; for Pigweed plant response rating: 125 g ai/ha; for Plant response rating, Pigweed: 500 g ai/ha
Procedure, shortened: as §1

[13] = system: wheat; experiment: Test A postemergence; type: in vivo, Triticum aestivum; details: 0 to 100 scale where 0 is no effect and 100 is complete control; for Wheat plant response rating: 125 g ai/ha; for Plant response rating, Wheat: 500 g ai/ha
Procedure, shortened: as §1

[14] = system: giant foxtail; experiment: Test A preemergence; type: in vivo, Setaria faberii; details: 0 to 100 scale where 0 is no effect and 100 is complete control; for Plant response rating, Foxtail, Giant: 125 g ai/ha; for Foxtail, Giant plant response rating: 500 g ai/ha
Procedure, shortened: as §1

[15] = system: morningglory; experiment: Test A preemergence; type: in vivo, Ipomoea spp.; details: for Morningglory plant response rating (0 to 100 scale): 125 g ai/ha; for Morningglory plant response rating: 500 g ai/ha, 0 to 100 scale where 0 is no effect and 100 is complete control
Procedure, shortened: as §1

[16] = system: barnyardgrass; experiment: Test A postemergence; type: in vivo, Echinochloa crus-galli; details: 0 to 100 scale where 0 is no effect and 100 is complete control; for Barnyardgrass plant response rating: 125 g ai/ha; for Plant response rating, Barnyardgrass: 500 g ai/ha
Procedure, shortened: as §1

[17] = system: barnyardgrass; experiment: Test A preemergence; type: in vivo, Echinochloa crus-galli; details: 0 to 100 scale where 0 is no effect and 100 is complete control; for Plant response rating, Barnyardgrass: 125 g ai/ha; for Barnyardgrass plant response rating: 500 g ai/ha
Procedure, shortened: as §1

[18] = system: pigweed; experiment: Test A preemergence; type: in vivo, Amaranthus retroflexus; details: for Pigweed plant response rating (0 to 100 scale): 125 g ai/ha; for Pigweed plant response rating: 500 g ai/ha, 0 to 100 scale where 0 is no effect and 100 is complete control
Procedure, shortened: as §1

[19] = system: velvetleaf; experiment: Test A preemergence; type: in vivo, Abutilon theophrasti; details: for Velvetleaf plant response rating (0 to 100 scale): 125 g ai/ha; for Velvetleaf plant response rating: 500 g ai/ha, 0 to 100 scale where 0 is no effect and 100 is complete control
Procedure, shortened: as §1

[20] = system: barnyardgrass; experiment: Test B flooded paddy test; type: in vivo, Echinochloa crus-galli; details: Flood, 250 g ai/ha; 0 to 100 scale where 0 is no effect and 100 is complete control
Procedure, shortened: as §2

SMILES	Foxtail, Giant plant response rating [1]	Plant response rating, Foxtail, Giant [1]	Plant response rating, Corn [2]	Corn plant response rating [2]	Plant response rating, Ducksalad [3]	Plant response rating, Sedge, Umbrella [4]	Crabgrass, Large plant response rating [5]	Plant response rating, Crabgrass, Large [5]	Plant response rating, Rice [6]	Velvetleaf plant response rating [7]	Plant response rating, Velvetleaf [7]	Corn plant response rating [8]	Plant response rating, Corn [8]	Morningglory plant response rating [9]	Plant response rating, Morningglory [9]	Plant response rating, Crabgrass, Large [10]	Crabgrass, Large plant response rating [10]	Wheat plant response rating (0 to 100 scale) [11]	Wheat plant response rating [11]	Pigweed plant response rating [12]	further results
O=Cc1cccc(Oc2ncc(Cl)cn2)c1-n1cc(C(F)(F)F)cn1 [Compound 171]	0	0	0	0	0	0	0	0	0	40	70	0	0	0	0	0	0	0	0	100	Plant response rating, Pigweed [12]: 100; Wheat plant response rating [13]: 0; Plant response rating, Wheat [13]: 0; Plant response rating, Foxtail, Giant [14]: 0; Foxtail, Giant plant response rating [14]: 0; Morningglory plant response rating (0 to 100 scale) [15]: 0; Morningglory plant response rating [15]: 0; Barnyardgrass plant response rating [16]: 0; Plant response rating, Barnyardgrass [16]: 0; Plant response rating, Barnyardgrass [17]: 20; Barnyardgrass plant response rating [17]: 60; Pigweed plant response rating (0 to 100 scale) [18]: 90; Pigweed plant response rating [18]: 100; Velvetleaf plant response rating (0 to 100 scale) [19]: 30; Velvetleaf plant response rating [19]: 70; Plant response rating, Barnyardgrass [20]: 0
FC(F)c1cccc(Oc2ncc(I)cn2)c1-n1cc(Br)cn1 [Compound 173]	10	50	0	0	0	0	0	40	0	60	70	0	20	0	0	20	80	0	0	100	Plant response rating, Pigweed [12]: 100; Wheat plant response rating [13]: 0; Plant response rating, Wheat [13]: 0; Plant response rating, Foxtail, Giant [14]: 50; Foxtail, Giant plant response rating [14]: 70; Morningglory plant response rating (0 to 100 scale) [15]: 0; Morningglory plant response rating [15]: 0; Barnyardgrass plant response rating [16]: 0; Plant response rating, Barnyardgrass [16]: 30; Plant response rating, Barnyardgrass [17]: 0; Barnyardgrass plant response rating [17]: 30; Pigweed plant response rating (0 to 100 scale) [18]: 80; Pigweed plant response rating [18]: 100; Velvetleaf plant response rating (0 to 100 scale) [19]: 0; Velvetleaf plant response rating [19]: 0; Plant response rating, Barnyardgrass [20]: 0
